Test in all cases: NCI anticancer screen, dose series, 48 h
The subject of test [1] is A498 renal.
The test system of test [2] is A549 NSCLC.
In test [3] the test system is HCT-15 colon.
Test [4] has as its system KM12 colon.
The test system of test [5] is NCI-H226 lung.
The subject of test [6] is OVCAR-3 ovarian.
Test [7] concerns OVCAR-4 ovarian.
The subject of test [8] is SF-268 CNS.
Test [9] concerns SN12C renal.
The test system of test [10] is SW-620 colon.

Consider nine molecules from PubChem BioAssay (NCI).

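Test compounds were applied to cells in 96-well plates for 48 hours at 5 doses. GI50 is the concentration that inhibits growth by half. At the TGI there is no net growth.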

On to `COc1cc2c3c(n(C)c(=O)c2cc1OC)-c1cc2c(cc1/C3=C\CN)OCO2`, for which the GI50 is 3.07 µM in test [1]; 0.273 µM in test [2]; 0.778 µM in [3]; 1.18 µM in test [4]; 0.515 µM in [5]; 1.58 µM in test [6]. For the same molecule, the GI50 is 5.55 µM in test [7], 0.433 µM in [8] and 0.565 µM in test [9]. For the same molecule, the TGI in [1] stood at 86.8 µM; in [2], 2.81 µM; in test [3], 19.8 µM; in test [4] it was 12.1 µM; in [5], 15.2 µM; in test [6], 14.8 µM. Moreover, the TGI was greater than 27.2 µM in test [7], greater than 79.2 µM in test [8], greater than 100 µM in test [9] and greater than 41.3 µM in test [10].

Turning to `O=C(Nc1nc(=S)c2c(ncn2CCOC(=O)c2ccccc2)[nH]1)c1ccccc1`, the TGI in test [1], in test [2], in test [3], in [4], in [5] and in test [6] was greater than 100 µM each time. Further, the TGI is 57.7 µM in test [7], 39.3 µM in [8], greater than 100 µM in test [9] and greater than 100 µM in [10].

`CC(C)Oc1ccc2cc(-c3nn(CC4CCNCC4)c4ncnc(N)c34)ccc2c1`: the GI50 was 14.2 µM in test [1]; 14.5 µM in test [2]; 3.74 µM in test [3]; 12.6 µM in test [4]; 17.4 µM in [5]; 12.5 µM in test [6]. Further, the GI50 in test [7] was 5.24 µM; in [8], 8.8 µM; in test [9] it was 11.8 µM; in [10], 13.2 µM. Moreover, the TGI amounted to 28.2 µM in test [1]; 28.3 µM in test [2]; 15.8 µM in test [3]; 26.4 µM in [4]; 35.2 µM in [5]; 25 µM in test [6]. Further, the TGI in [7] is 19.5 µM; in [8], 23.5 µM; in test [9], 24.8 µM; in [10], 26.8 µM.

For `COc1c(OC[C@H](O)CN2CCOCC2)ccc2c3n(c(=NC(=O)c4cccnc4C)nc12)CCN3`, the GI50 in test [1] is 0.167 µM; in test [2], 0.826 µM; in test [3] it was 1.62 µM; in test [4], 40.7 µM; in test [5], 15.4 µM; in [6], 0.432 µM. For the same molecule, the GI50 in test [7] was greater than 50 µM; in [8], 12.4 µM; in test [9], 1.72 µM; in test [10], 49.4 µM. Also, the TGI in test [1] was 1.85 µM; in test [2] it was greater than 50 µM; in test [3], greater than 50 µM; in test [4], greater than 50 µM; in test [5], greater than 50 µM; in [6], greater than 50 µM. Further, the TGI in test [7], in test [8], in test [9] and in test [10] was greater than 50 µM throughout.

For the molecule `CCOc1ccccc1NC(=O)C(=O)CC(=O)c1sc(Nc2nnc(-c3ccc(Cl)c(Cl)c3)o2)nc1C`, the TGI in test [1], in [2], in test [3], in [4], in test [5] and in test [6] was greater than 100 µM throughout. The TGI in test [7], in [8], in test [9] and in [10] was greater than 100 µM in each case.

Regarding `CN1C(=O)N(C)C2C1NN=c1s/c(=C\c3ccc(Cl)cc3Cl)c(=O)n12` (centres undefined), the GI50 in [1] is 0.067 µM; in [2] it was 0.243 µM; in test [3], 0.0882 µM; in test [4], 0.134 µM; in test [5], 0.623 µM; in [6] it was 0.104 µM. Further, the GI50 in [7] is 1.66 µM; in test [8], 1.66 µM; in test [9] it was 0.422 µM; in test [10], 0.109 µM. For the same molecule, the TGI in [1] was 0.653 µM; in test [2], greater than 100 µM; in [3] it was greater than 100 µM; in test [4] it was greater than 75.4 µM; in test [5], greater than 100 µM; in [6] it was 11.2 µM. Also, the TGI in [7] is greater than 78.9 µM; in test [8], greater than 100 µM; in test [9] it was greater than 100 µM; in test [10], greater than 100 µM.

For the molecule `COc1cc2c(c(OC)c1OC)-c1ccc(SC)c(=O)cc1C(NC=O)CC2` (centres undefined), the TGI in [1] is 1.76 µM; in [2] it was greater than 83.4 µM; in [3], greater than 37.4 µM; in [4], less than 0.0138 µM; in [5] it was 0.754 µM; in [6] it was 2.33 µM. In addition, the TGI in test [7] was greater than 100 µM; in test [8], greater than 100 µM; in test [9] it was greater than 89.5 µM; in test [10] it was greater than 100 µM.

On to `O=C1/C(=C/c2ccc3c(c2)OCO3)SC2C=Nc3ccccc3N12` (centres undefined), for which the TGI in test [1], in test [2], in [3], in test [4], in test [5] and in test [6] was greater than 100 µM throughout. The TGI in test [7], in [8], in test [9] and in test [10] was greater than 100 µM throughout.

For the molecule `C=CCCCCOc1ccccc1-c1cnc(OCCCCC=C)n1C`, the GI50 is 2.1 µM in test [1]; 3.92 µM in [2]; 4 µM in test [3]; 3.3 µM in test [4]; 13 µM in test [5]; 3.21 µM in [6]. Further, the GI50 in test [7] was 10.3 µM; in [8] it was 4.21 µM; in test [9], 5.51 µM; in [10], 2.97 µM. Moreover, the TGI in test [1] turned out to be 10.2 µM; in [2] it was 21.9 µM; in test [3] it was 16.3 µM; in test [4] it was 13.1 µM; in [5], 28.5 µM; in [6] it was 10.1 µM. In addition, the TGI in test [7] stood at 50.7 µM; in test [8] it was 21.3 µM; in test [9] it was 23.9 µM; in [10], 11 µM.
